Our source for the TGI values is PubChem BioAssay (NCI).

Experiment in all cases: NCI tumour cell line growth inhibition, 48 h
Assay [1] concerns RPMI-8226 leukemia.
The test system of assay [2] is SNB-19 CNS.
For assay [3], the system named is NCI-H23 lung.
In assay [4] the test system is UACC-257 melanoma.
The test system of assay [5] is MDA-MB-231 breast.
Assay [6] concerns NCI-H460 lung.
The test system of assay [7] is SF-268 CNS.
Assay [8] has as its system MCF7 breast.
In assay [9] the test system is MOLT-4 leukemia.
Assay [10] relates to T-47D breast.

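Results reflect a 48-hour exposure of cells in 96-well plates to compound at five concentrations. TGI is the concentration that stops growth completely.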

For `COc1ccccc1NCC(=O)Nn1c(C)nc2ccc(S(=O)(=O)Nc3ccccc3OC)cc2c1=O`, the TGI in [1], in assay [2], in assay [3], in assay [4], in assay [5] and in assay [6] was more than 100 µM each time. For the same compound, the TGI in assay [7], in assay [8] and in assay [9] was more than 100 µM throughout.
As for `c1ccc(C2[C@@H]3CCCc4ccccc4C3=NN2c2ccccc2)cc1` (stereo partly drawn), the TGI in assay [1], in assay [2], in [3], in [4], in [6] and in assay [7] was more than 100 µM throughout. This compound showed a TGI in assay [9] of more than 100 µM.
Take `Cc1cc(C)c(N=Nc2c(O)c(S(=O)(=O)O)cc3cc(S(=O)(=O)O)ccc23)cc1C`: the TGI in assay [1], in [10], in assay [2], in assay [3], in [4] and in assay [5] was more than 100 µM in each case. For the same compound, the TGI in [7] and in assay [9] was more than 100 µM in each case.
With `CC1(C)c2ccccc2C(O)C12CCC(=O)CC2` (stereo not drawn), the TGI in assay [1], in assay [10], in [2], in assay [3], in assay [4] and in assay [5] was more than 100 µM in each case. In addition, the TGI in assay [6] and in [7] was more than 100 µM throughout.
`CC(C)c1cccc(C(C)C)c1OS(=O)(=O)NC(=O)OC(C(F)(F)F)C(F)(F)F`: the TGI in assay [1] is 44.8 µM; in assay [2], more than 100 µM; in [3] it was more than 100 µM; in assay [4], more than 100 µM; in assay [5] it was more than 100 µM; in assay [6] it was more than 100 µM. Further, the TGI was more than 100 µM in [7], more than 100 µM in assay [8] and 55.6 µM in [9].
For `C[N+](C)(C)CC1CCCC/C1=N\O` (stereo not drawn), the TGI in assay [1], in assay [2], in assay [3], in assay [4], in assay [6] and in assay [7] was more than 100 µM throughout. The compound also displayed a TGI in assay [9] of more than 100 µM.
Regarding `COC(=O)C1C2CC3C(OC(=O)C31)C2OC(=O)[C@](OC)(c1ccccc1)C(F)(F)F` (stereo partly drawn), the TGI in [1], in assay [2], in [3], in [4], in assay [6] and in [7] was more than 100 µM throughout. Also, in assay [9], the TGI is more than 100 µM.
Turning to `O=[N+]([O-])c1cc(Cl)ccc1S(=O)(=O)N1CCCc2cc(Cl)ccc21`, the TGI in assay [1] was more than 100 µM; in assay [2], more than 100 µM; in assay [4], 83.7 µM; in [5], more than 100 µM; in assay [6] it was more than 100 µM; in [7], more than 100 µM. The TGI in assay [8] and in assay [9] was more than 100 µM in each case.
As to `OC(c1ccccc1)(c1cccnc1)C(O)(c1ccccc1)c1cccnc1` (stereo not drawn), the TGI in assay [1], in assay [10], in assay [2], in assay [3], in [4] and in assay [5] was more than 100 µM throughout. Moreover, the TGI in [6], in assay [7] and in assay [8] was more than 100 µM each time.
On to `NC(N)=NCC(N)C(=O)O` (stereo not drawn), for which the TGI in assay [1], in assay [10], in assay [2], in assay [3], in assay [4] and in assay [5] was more than 100 µM throughout. Besides, the TGI in assay [6], in [7] and in [8] was more than 100 µM in each case.
Take `CC(=O)O[C@H]1CC[C@H]2[C@@H]3CCC(C(C)=O)[C@H](C(=O)O)[C@H]3CC[C@]12C` (stereo partly drawn): the TGI in [1], in [2], in assay [3], in [4], in assay [5] and in assay [6] was more than 100 µM throughout. The TGI in [7], in assay [8] and in assay [9] was more than 100 µM each time.
`CC(=O)CC(=O)/C=C/c1cccs1`: the TGI in [1], in [2], in assay [3], in assay [4], in assay [6] and in [7] was more than 100 µM throughout. The TGI in assay [9] is more than 100 µM.
Consider `CC(C)(C)OC(=O)N1N=NC2C3OC(CC3=O)C21` (stereo not drawn), for which the TGI in assay [1], in assay [2], in assay [3], in assay [4], in assay [6] and in [7] was more than 100 µM throughout. Besides, the TGI in [9] is more than 100 µM.
On to `CCCCNC(=S)Nc1nc(C(=O)NNC(=O)c2ccccc2)cs1`, for which the TGI in assay [1] was more than 100 µM; in assay [10] it was 39.4 µM; in assay [4], 37 µM; in assay [5], 29 µM; in [7], more than 100 µM; in assay [9], more than 100 µM.
With `O=C1N[C@@H](COc2ccc(C=Nc3ccc(CCc4ccc(N=Cc5ccc(OC[C@@H]6COC(=O)N6)cc5)cc4)cc3)cc2)CO1`, the TGI in [1], in assay [10], in assay [2], in assay [4], in [5] and in assay [7] was more than 100 µM each time. Also, the TGI in assay [9] is more than 100 µM.
Regarding `CN(C)CCn1nc(N)c2nc3cc(C(F)(F)F)ccc3nc21`, the TGI in assay [1], in [2], in assay [3], in assay [4], in assay [5] and in [6] was more than 100 µM throughout. Besides, the TGI in assay [7], in [8] and in assay [9] was more than 100 µM throughout.
Regarding `NC(=O)N/N=C(/c1nc2ccc([N+](=O)[O-])cc2[nH]c1=O)C(O)c1ccco1` (stereo not drawn), the TGI in assay [1], in [2], in assay [3], in [4], in assay [6] and in assay [7] was more than 100 µM each time. The same compound showed a TGI in [9] of more than 100 µM.
As for `O=C1NC2(C=Cc3c(ccc4ccccc34)O2)Oc2ccccc21` (stereo not drawn), the TGI in assay [1] was 47.6 µM; in assay [2], 79.1 µM; in assay [3], 92.3 µM; in [6], more than 100 µM; in assay [7], 58.3 µM; in [9] it was 30.5 µM.
For the compound `CC(C)N(C(C)C)P(OCCC#N)OC1CC(n2cnc3c(=O)[nH]cnc32)OC1COC(=O)NCCCCCCNC(=O)OC(C)(C)c1ccc(-c2ccccc2)cc1` (stereo not drawn), the TGI was 76.1 µM in assay [1]; 57.8 µM in [2]; 50.5 µM in [3]; 30.3 µM in [4]; 65 µM in assay [6]; 57.5 µM in assay [7]. The same compound registered a TGI in [9] of more than 100 µM.
For `Brc1cccc[n+]1-c1ccc2cc(-[n+]3ccccc3Br)ccc2c1`, the TGI in assay [1] is 63.8 µM; in assay [10] it was 58.4 µM; in assay [2], more than 100 µM; in assay [3], more than 100 µM; in assay [4], more than 100 µM; in assay [5], 85.6 µM. Besides, the TGI is more than 100 µM in assay [6], 90.4 µM in [7] and more than 100 µM in assay [8].
As for `CCN(CC)CCNc1ccc2ncn3c4cc(=O)ccc4c(O)c1c23`, the TGI in assay [1] was found to be 9.97 µM; in [2] it was 32 µM; in [3], 14.6 µM; in [4], 17.8 µM; in assay [6], 9.61 µM; in assay [7] it was 12.1 µM. For the same compound, the TGI in [9] amounted to 6.15 µM.
In the case of `COCCNC1CCC2(SCCS2)c2[nH]c3ccccc3c21` (stereo not drawn), the TGI in assay [1] is 41.4 µM; in [2], more than 100 µM; in assay [3], more than 100 µM; in assay [4], 39.5 µM; in assay [5], 54.1 µM; in assay [6], more than 100 µM. In addition, the figures for the TGI in [7], in assay [8] and in [9] were more than 100 µM, 39.3 µM and more than 100 µM, respectively.
For `COc1ccc(C2C(Cl)C(=O)N2NC(=O)Cc2ccccc2)cc1OC` (stereo not drawn), the TGI in assay [1], in assay [2], in assay [3], in assay [4], in assay [6] and in assay [7] was more than 100 µM throughout. The TGI in [9] is more than 100 µM.
For the compound `CCOC(=O)NC(=O)c1c[nH]c(=O)[nH]c1=O`, the TGI in [1], in assay [2], in assay [3], in assay [4], in assay [6] and in assay [9] was more than 100 µM each time.
With `COC[C@@H](Cc1ccc(OC)c(OC)c1)[C@@H](COC)Cc1ccc(OC)c(OC)c1`, the TGI in assay [2], in assay [3], in assay [4], in assay [6], in assay [7] and in assay [9] was more than 100 µM in each case.
On to `N#C/C(=C\c1ccccc1Br)C(=O)c1ccccc1`, for which the TGI in [1] is 51.6 µM; in assay [2] it was more than 87.3 µM; in [3], more than 62.2 µM; in [4] it was more than 100 µM; in assay [6], more than 100 µM; in assay [7] it was more than 85.4 µM. The compound also showed a TGI in assay [9] of 52.8 µM.
Regarding `CN1B(c2ccccc2)N(C)C(=O)N(C)C1=O`, the TGI in [1], in [10], in assay [2], in assay [3], in [4] and in [6] was more than 100 µM each time. The TGI in assay [7] and in assay [8] was more than 100 µM in each case.
On to `CC1(C)CC[C@]2(C(=O)O)[C@H](O)C[C@]3(C)C(=CC[C@@H]4[C@@]5(C)CC[C@H](OC6OC(C(=O)O)C(O)C(O)C6O)C(C)(C)[C@@H]5CC[C@]43C)[C@@H]2C1` (stereo partly drawn), for which the TGI in assay [1], in assay [10], in assay [2], in assay [3], in assay [4] and in [6] was more than 100 µM throughout. For the same compound, the TGI in assay [7], in [8] and in assay [9] was more than 100 µM in each case.
As to `COc1ccccc1NS(=O)(=O)c1ccc2ncn(NS(=O)(=O)c3ccc(Cl)cc3)c(=O)c2c1`, the TGI in [1], in assay [2], in [3], in assay [4], in assay [5] and in [6] was more than 100 µM throughout. In addition, the TGI in assay [7], in assay [8] and in [9] was more than 100 µM in each case.
Take `CC1(C)C2CCC(N)(C2)C1O` (stereo not drawn): the TGI in assay [1], in assay [10], in assay [2], in [3], in assay [4] and in assay [6] was more than 100 µM each time. Besides, the TGI in [8] and in assay [9] was more than 100 µM throughout.
Turning to `CN1C(=O)N(C)C2(CCN(CCCCCCF)CC2)C1=O`, the TGI in [1], in assay [10], in assay [2], in assay [3], in [4] and in assay [5] was more than 100 µM throughout. The TGI in assay [7] and in [8] was more than 100 µM in each case.
As to `Cc1cc(O)c(C(C)C)cc1N=Cc1ccccc1O`, the TGI in assay [2] amounted to 36.5 µM; in assay [3], 37.9 µM; in assay [4], 24.4 µM; in [5], 3.59 µM; in assay [6], 24.6 µM; in [7], 21.4 µM. Moreover, the TGI in assay [8] is 78.9 µM.
`O=C1C[C@H](c2ccc(O)c(O)c2)Oc2cc(O)cc(O)c21`: the TGI in [1], in [2], in [3], in assay [4], in assay [6] and in [7] was more than 100 µM throughout. In assay [9], this compound returned a TGI of more than 100 µM.
